Experiment [1] deals with T1, Sodium-dependent dopamine transporter (Rattus norvegicus, UniProt P23977). The experiment is described as follows: Binding affinity towards dopamine transporter using [3H]- mazindol as radioligand in rat striatal membranes. The format is cell membranes, Striatum, Membrane.
For experiment [2], the target named is T1, Sodium-dependent dopamine transporter. The experiment is described as follows: Inhibition of high affinity uptake of [3H]dopamine into striatal nerve endings (synaptosomes). The format is subcellular, Brain.

pKi: −log10 of the molar value.

A word on the pKi: it is −log10 of the Ki, conventionally taken in molar units.

T1 sequence (P23977 whole entry): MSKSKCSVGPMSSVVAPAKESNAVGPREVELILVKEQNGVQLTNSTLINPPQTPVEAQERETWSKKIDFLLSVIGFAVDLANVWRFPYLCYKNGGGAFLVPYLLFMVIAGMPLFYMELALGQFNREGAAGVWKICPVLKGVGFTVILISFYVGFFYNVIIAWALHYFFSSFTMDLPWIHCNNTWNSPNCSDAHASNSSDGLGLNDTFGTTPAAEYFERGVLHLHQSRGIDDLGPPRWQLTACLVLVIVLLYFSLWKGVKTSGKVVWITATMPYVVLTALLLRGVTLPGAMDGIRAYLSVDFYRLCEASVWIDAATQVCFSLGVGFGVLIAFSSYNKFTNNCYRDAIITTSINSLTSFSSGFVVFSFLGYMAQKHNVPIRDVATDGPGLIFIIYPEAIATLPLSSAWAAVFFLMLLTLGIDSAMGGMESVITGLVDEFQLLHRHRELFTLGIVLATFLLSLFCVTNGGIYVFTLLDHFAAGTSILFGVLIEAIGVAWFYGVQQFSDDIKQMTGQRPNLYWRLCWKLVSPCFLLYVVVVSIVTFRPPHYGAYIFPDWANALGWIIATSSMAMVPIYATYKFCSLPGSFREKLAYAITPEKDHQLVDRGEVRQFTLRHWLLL

Regarding `COC(=O)[C@@H]1C2CCC(C[C@H]1OC(=O)c1ccccc1)O2` (some centres not stated), the pKi in experiment [1] was 4.47; in experiment [2], 4.64.
Regarding `COC(=O)[C@H]1C2CCC(C[C@H]1OC(=O)c1ccccc1)O2` (some centres not stated), the pKi was 4.42 in experiment [1] and 4.46 in experiment [2].
The like results for `COC(=O)[C@@H]1C2CCC(C[C@@H]1OC(=O)c1ccccc1)O2` (stereo in doubt; (+)) were, in that order, 5.51 and 5.03.
As for `COC(=O)[C@H]1C2CCC(C[C@@H]1OC(=O)c1ccccc1)O2` (stereo in doubt; (+)), the negative-log Ki (pKi) in experiment [1] is 4.53; in experiment [2], 4.32.
In the same order, the values of `COC(=O)[C@@H]1C2CCC(C[C@@H]1OC(=O)c1ccccc1)O2` (stereo in doubt; (-)) are 5.38 and 5.07.
In the same order, the values of `COC(=O)[C@H]1C2CCC(C[C@@H]1OC(=O)c1ccccc1)O2` (stereo in doubt; (-)) are 5.33 and 5.22.

Values taken from ChEMBL document CHEMBL1131772, “Synthesis of 8-Oxa analogues of norcocaine endowed with interesting cocaine-like activity” (Bioorg Med Chem Lett, 1999).
